In patent US8124364B2, “Biotin derivatives” (Glycorex Transplantation AB, priority 2000, dated 2012):

Key:
avidin = avidin (Gallus gallus, UniProt P02701); test: Assessment of avidin adsorption on a column conditioned with biotin trimer, avidin by ELISA; assay type: binding
Procedure: An avidin-agarose column that was conditioned with a biotin trimer (i.e. FIG. 4, compound #2) was primed with phosphate buffer. Following this, 20 mL avidin-solution with 1 mg avidin/mL in PBS was recirculated through a biotin-avidin-agarose-column at 1.0 mL/min (1.6 cm/min). Three volumes of the avidin solution (3×20 mL) were processed and aliquots were drawn from the reservoir before start of the recirculation, then after 2 main and in 5 min intervals. The aliquots were analyzed for the quantity of avidin in them using an ELISA technique developed by Mitra Medical Technology AB. The dotted line represented the theoretically expected if no saturation effect has occurred. The column is saturated after about 40 min (2 vol.) when about 16 mg (80%) of, avidin has been bound. Signs of saturation was seen after about 20 min (1.0 vol.) when the experimental curve begin to deviate from the theoretical curve which occurred when about 10 mg of Avidin had been bound to the column.
After a 40 min recirculation, about 16 mg of avidin was bound, i.e. 8 mg/mL biotin-avidin-agarose. This corresponds to a 1:1 molar ration between the avidin coupled to agarose and the avidin adsorbed to the biotin-trimer. Initial saturation effects were seen after about one recirculated volume. After 2 volumes processed no further avidin was bound.

Mitra Avidin-Agarose = biological target: T1, Mitra Avidin-Agarose (Gallus gallus, UniProt P02701); test: Adsorption of biotin-trimer to avidin-agarose column (conditioning), concentration in recirculated fluid by ELISA; assay type: binding; conditions: 2 mL Mitra Avidin-Agarose; 5 mL of 1 mg/mL biotin-trimer in PBS recirculated at 1 mL/min for 20 minutes; end of recirculation
T1 construct: Mitra
T1 sequence (P02701 25-152): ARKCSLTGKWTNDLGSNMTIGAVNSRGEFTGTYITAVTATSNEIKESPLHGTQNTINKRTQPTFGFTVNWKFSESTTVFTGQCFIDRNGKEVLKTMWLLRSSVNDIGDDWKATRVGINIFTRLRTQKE
Procedure: Two mL of Mitra Avidin-Agarose was packed into a column housing and was washed with >10 mL of PBS at a flow rate of 1 mL/min (1.6 cm/min). Five mL of a 1 mg/mL solution of biotin-trimer in PBS was recirculated through the avidin-column at 1 mL/min for 20 minutes. At end of the recirculation, a sample (0.5 mL) was drawn from the recirculated solution and analysed by an ELISA technique developed by Mitra Medical Technology AB. The biotin-avidin-agarose-column was washed with phosphate buffer at 1 mL/min for 20 minutes. By determining the concentration of biotin-trimer in the recirculated fluid, the amount of adsorbed biotin-trimer was estimated to about 1.9 mg i.e. 0.95 mg/mL of gel at the end of recirculation.
Biotin-trimer was adsorbed to 2 mL of Mitra Avidin-Agarose. […] If one biotin-trimer is bound per available binding site this would correspond to […] biotin-trimer/mL. As about 0.95 mg biotin-trimer was bound per mL avidin-agarose it can be assumed that the adsorbent was saturated with biotin-trimer.

Sequence of avidin (P02701 25-152): as above

O=C(CCCCC1OCC2NC(=O)NC21)NCCOCCOCCNC(=O)c1cc(C(=O)NCCOCCOCCNC(=O)CCCCC2OCC3NC(=O)NC32)cc(C(=O)NCCOCCOCCNC(=O)CCCCC2OCC3NC(=O)NC32)c1 (stereo not drawn) [biotin-trimer]
time until signs of saturation (avidin; 1.0 vol.): about 20 min | avidin bound at saturation of the column (avidin; 20 mL of 1 mg avidin/mL in PBS recirculated at 1.0 mL/min, after about 40 min (2 vol.)): about 16 mg | avidin bound when signs of saturation were seen (avidin; after about 20 min (1.0 vol.), experimental curve begins to deviate from theoretical curve): about 10 mg | share of avidin bound at saturation (avidin; after about 40 min (2 vol.)): ~80% | time until the column is saturated (avidin; recirculation at 1.0 mL/min, 2 vol.): about 40 min | amount of adsorbed biotin-trimer (Mitra Avidin-Agarose): about 1.9 mg
